Test results: PMC5333395, “Assessing histone demethylase inhibitors in cells: lessons learned” (Epigenetics & Chromatin, 2017)

Assays:
Test in all cases: AlphaScreen in vitro demethylase assay
Assay type in all cases: biochemical
KDM3A = biological target: T1, KDM3A (Homo sapiens, UniProt Q9Y4C1); settings: IC50 ± SD (number of replicates)
T1 sequence (Q9Y4C1 1-1321): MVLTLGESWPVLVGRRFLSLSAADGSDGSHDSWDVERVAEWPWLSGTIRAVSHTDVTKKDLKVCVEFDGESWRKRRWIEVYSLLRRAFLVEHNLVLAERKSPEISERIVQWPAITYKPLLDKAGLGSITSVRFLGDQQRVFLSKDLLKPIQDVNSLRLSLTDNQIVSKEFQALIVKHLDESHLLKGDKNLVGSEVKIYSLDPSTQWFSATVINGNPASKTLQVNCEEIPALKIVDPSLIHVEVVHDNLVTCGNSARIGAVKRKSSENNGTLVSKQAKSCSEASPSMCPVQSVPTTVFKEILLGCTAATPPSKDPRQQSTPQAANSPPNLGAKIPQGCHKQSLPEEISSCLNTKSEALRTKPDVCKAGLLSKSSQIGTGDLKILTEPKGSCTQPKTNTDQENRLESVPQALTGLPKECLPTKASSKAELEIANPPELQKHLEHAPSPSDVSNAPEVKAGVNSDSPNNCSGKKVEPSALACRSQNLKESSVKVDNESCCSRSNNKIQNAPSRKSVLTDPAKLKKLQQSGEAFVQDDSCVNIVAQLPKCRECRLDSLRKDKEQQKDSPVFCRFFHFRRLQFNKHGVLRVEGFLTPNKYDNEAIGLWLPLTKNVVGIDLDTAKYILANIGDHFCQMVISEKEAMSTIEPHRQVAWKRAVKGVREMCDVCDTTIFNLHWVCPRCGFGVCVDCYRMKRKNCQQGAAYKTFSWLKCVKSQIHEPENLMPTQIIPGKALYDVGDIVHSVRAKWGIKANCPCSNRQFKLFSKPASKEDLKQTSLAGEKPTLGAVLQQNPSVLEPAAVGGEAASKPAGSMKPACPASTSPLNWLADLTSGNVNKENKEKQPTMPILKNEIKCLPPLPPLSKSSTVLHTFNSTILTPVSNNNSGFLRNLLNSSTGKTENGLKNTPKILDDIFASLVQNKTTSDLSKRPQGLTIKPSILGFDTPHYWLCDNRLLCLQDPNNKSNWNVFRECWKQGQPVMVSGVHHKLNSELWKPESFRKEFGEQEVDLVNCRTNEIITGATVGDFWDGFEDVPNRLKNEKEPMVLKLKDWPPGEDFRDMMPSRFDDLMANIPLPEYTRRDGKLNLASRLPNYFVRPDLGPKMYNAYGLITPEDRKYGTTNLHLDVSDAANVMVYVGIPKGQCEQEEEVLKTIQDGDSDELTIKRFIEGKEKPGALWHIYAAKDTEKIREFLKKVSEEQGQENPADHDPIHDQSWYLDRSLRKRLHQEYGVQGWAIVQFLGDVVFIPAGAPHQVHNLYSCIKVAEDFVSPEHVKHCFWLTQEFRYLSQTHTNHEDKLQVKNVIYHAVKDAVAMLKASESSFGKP
Description: (§1) IC50 values were determined as previously described. The following amendments were made to the protocol for carrying out 2-OG competition assays.

KDM4A = biological target: T2, KDM4A (Homo sapiens, UniProt O75164); settings: IC50 ± SD (number of replicates)
T2 sequence (O75164 1-1064): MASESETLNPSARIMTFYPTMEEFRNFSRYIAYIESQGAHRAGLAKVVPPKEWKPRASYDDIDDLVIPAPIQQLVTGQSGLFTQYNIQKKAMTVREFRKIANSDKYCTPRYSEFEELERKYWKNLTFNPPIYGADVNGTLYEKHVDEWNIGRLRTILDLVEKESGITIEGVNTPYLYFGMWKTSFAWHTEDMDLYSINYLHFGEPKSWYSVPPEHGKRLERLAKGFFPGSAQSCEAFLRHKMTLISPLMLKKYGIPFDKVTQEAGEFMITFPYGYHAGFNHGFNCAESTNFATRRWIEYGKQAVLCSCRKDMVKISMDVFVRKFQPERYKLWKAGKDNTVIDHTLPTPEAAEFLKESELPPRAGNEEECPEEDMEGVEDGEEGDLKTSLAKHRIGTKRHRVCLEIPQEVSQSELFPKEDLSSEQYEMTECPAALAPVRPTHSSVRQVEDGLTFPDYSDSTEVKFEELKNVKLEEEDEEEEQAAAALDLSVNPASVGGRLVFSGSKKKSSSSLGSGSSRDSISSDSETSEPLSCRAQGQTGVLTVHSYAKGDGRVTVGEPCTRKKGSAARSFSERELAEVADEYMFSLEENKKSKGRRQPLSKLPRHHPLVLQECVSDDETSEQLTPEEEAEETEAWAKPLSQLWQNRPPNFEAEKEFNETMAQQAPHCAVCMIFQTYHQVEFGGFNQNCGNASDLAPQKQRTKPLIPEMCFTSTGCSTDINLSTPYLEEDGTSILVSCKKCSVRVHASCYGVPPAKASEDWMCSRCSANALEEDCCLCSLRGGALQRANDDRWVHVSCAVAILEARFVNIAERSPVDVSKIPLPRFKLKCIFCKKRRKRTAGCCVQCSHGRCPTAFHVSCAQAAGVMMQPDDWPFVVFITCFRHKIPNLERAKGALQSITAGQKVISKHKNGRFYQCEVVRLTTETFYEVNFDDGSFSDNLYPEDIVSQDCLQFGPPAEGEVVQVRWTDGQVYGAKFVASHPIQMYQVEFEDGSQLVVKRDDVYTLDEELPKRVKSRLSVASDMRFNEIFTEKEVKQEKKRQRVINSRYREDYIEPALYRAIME
Description: as §1

KDM6B = KDM6B (Homo sapiens, UniProt O15054); settings: AlphaScreen; IC50 ± SD (number of replicates); read-out: KDM6B IC50, in vitro
Description: as §1

KDM6B, sequence (O15054 whole entry): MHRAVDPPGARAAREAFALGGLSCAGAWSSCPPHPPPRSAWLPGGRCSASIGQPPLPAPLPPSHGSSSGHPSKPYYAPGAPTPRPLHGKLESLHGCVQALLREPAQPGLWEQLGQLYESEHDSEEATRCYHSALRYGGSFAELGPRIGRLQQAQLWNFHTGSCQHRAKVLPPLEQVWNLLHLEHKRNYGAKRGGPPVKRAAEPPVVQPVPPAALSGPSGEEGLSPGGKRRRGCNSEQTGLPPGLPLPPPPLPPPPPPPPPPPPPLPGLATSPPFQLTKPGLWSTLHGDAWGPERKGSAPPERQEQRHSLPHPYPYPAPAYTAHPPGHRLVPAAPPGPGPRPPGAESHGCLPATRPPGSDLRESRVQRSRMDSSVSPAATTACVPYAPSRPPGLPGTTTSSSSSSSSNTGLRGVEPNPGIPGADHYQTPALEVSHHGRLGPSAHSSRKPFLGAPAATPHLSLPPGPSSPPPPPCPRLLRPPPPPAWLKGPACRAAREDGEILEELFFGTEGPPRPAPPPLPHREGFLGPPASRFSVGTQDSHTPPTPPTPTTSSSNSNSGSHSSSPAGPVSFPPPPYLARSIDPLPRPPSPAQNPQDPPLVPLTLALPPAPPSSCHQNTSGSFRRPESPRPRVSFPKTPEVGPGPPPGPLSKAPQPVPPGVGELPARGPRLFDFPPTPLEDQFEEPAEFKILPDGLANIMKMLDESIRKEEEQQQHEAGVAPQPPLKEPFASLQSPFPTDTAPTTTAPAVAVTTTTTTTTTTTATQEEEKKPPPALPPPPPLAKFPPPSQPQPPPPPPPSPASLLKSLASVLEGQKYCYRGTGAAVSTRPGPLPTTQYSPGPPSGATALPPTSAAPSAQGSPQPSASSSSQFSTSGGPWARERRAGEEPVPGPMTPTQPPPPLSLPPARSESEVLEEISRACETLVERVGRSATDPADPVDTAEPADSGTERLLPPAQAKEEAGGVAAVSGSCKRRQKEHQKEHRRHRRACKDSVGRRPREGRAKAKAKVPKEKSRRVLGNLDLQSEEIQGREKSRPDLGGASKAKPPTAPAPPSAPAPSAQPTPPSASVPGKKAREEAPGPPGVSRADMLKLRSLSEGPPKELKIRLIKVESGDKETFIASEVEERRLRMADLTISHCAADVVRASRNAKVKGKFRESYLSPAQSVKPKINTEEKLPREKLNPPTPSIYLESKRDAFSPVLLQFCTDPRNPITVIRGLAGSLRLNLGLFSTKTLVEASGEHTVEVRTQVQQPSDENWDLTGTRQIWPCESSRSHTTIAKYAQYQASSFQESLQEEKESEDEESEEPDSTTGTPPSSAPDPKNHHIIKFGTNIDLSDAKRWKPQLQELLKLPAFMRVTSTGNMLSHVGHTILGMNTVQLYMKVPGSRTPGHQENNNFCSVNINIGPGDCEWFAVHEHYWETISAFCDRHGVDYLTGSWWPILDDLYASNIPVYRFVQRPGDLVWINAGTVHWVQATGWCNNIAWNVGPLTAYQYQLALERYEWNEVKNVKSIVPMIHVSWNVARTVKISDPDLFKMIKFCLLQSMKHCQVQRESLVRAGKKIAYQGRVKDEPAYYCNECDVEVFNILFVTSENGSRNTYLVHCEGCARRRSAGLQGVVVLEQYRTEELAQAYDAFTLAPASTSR

Row | Compound | IC50 (KDM3A) [µM] | IC50 (KDM4A) [µM] | IC50 (KDM6B) [µM]
1 | CCOC(=O)c1ccnc(CNCC(=O)N(CC)CCN(C)C)c1 [KDOAM-21] | 2.6 ± 1.3 | 11 ± 4.5 | 11 ± 4.6
2 | CPI-455 | > 100 | 31 | > 100
3 | CCN(CCN(C)C)C(=O)CNCc1cc(C(=O)O)ccn1 [KDOAM-20] | 1.2 ± 0.91 | 0.67 ± 0.23 | 1.4 ± 0.45
4 | O=c1[nH]cnc2c(-n3cc(CCN4CCC(c5cccc(Cl)c5)CC4)cn3)cccc12 [CCT366293, 8-(4-(2-(4-(3-Chlorophenyl)piperidin-1-yl)ethyl)-1H-pyrazol-1-yl)quinazolin-4(3H)-one] | – | > 10 | –
